Assay results as given in patent US20220373534A1, “HUMAN NASOPHARYNGEAL CARCINOMA CELLS DERIVED FROM PATIENT DERIVED XENOGRAFT AND USES THEREOF” (Chang Gung Memorial Hospital, Linkou, priority 2021, published 2022).

Tested on: NPC PDX-B13
Assay: In vivo study of tumor volume in the NPC PDX-B13 mouse model
Parameters: species or system NOD/SCID mice
Settings: week 6, read from FIG. 4
Protocol: NPC cell lines, C666-1 (EBV positive) and HK-1 (EBV negative), were maintained in RPMI containing 10% fetal bovine serum (FBS). A cell growth assay and animal studies were conducted as described by CL Hsu et al (“Application of a Patient-Derived Xenograft Model in Cytolytic Viral Activation Therapy for Nasopharyngeal Carcinoma.” Oncotarget 6, no. 31 (2015): 31323-34).
PDX models were generated as follows: NPC tumor samples were obtained from patients with local recurrence or metastasis undergoing biopsy or surgical resection. Each sample was immediately cut into smaller pieces of approximately 3-5 mm in diameter and subcutaneously implanted into the flank regions of anesthetized NOD/SCID mice. The xenograft was excised and reimplanted in small pieces into the next passage after the tumor reached 1-2 cm in diameter.

| SMILES | inhibit PDX-B13 tumor growth (reduce tumor volume) |
| --- | --- |
| CN(C)C/C=C/C(=O)Nc1cc2c(Nc3ccc(F)c(Cl)c3)ncnc2cc1O[C@H]1CCOC1 [AFA, Afatinib] | approximately 30% |
| CC(=O)c1c(C)c2cnc(Nc3ccc(N4CCNCC4)cn3)nc2n(C2CCCC2)c1=O [PAL, Palbociclib] | ~70% |
